Source: patent US20210052537A1, “COLITIS AMELIORATING AGENT” (ASTA PHARMACEUTICALS, CO., LTD., priority 2018, published 2021)
Values joined by “and” are separate entries in the source; they are usually repeats but may differ in a detail not shown here. Equal values may be shown once.

Test system: Oxa-induced colitis
Assay: Oxazolone (Oxa)-induced colitis mouse model
Assay type: in vivo
Conditions: for Colon length / Colon weight (wet weight per length): 6 days, mean ± SD
From the text: In this Example, mouse models to which oxazolone (4-ethoxymethylene-2-phenyl-2-oxazolin-5-on, hereinafter, Oxa) is used will be described as colitis models. When Oxa was first applied to skin, subsequently administered enterally after a certain period of time, an experimental ulcerative colitis model similar to human ulcerative colitis in terms of not only symptoms such as suppression of body weight increase, blood in stools, and anemia and formation of colon erosion but also immune cells was built (Non-Patent Literature 4). A suppression effect of Compound X on colitis in such a model as the test model showing pathological conditions more similar to human ulcerative colitis was examined. For the examination items, the length and weight of the colon were examined as changes in colon properties are widely known to occur also in this model.
For treatment, Balb/c, male mice were purchased from CHARLES RIVER LABORATORIES JAPAN, INC. in accordance with previous literature (Non-Patent Literature 5) and 8-week old mice with no abnormal general conditions during quarantine and acclimation period were used for the experiment. After acclimation, the animals were divided in such a way as to be 1 mouse per cage. Oxa used in the experiment was purchased from Sigma.
Fur at back of the neck was shaved in an area of 1.5×1.5 cm under anesthesia, and 150 μL (a 100% ethanol solution) of 3% (wt/vol) Oxa was added using a pipette and applied between the shoulders to sensitize (Day 1). The mice were kept under such a typical breeding environment, fasted for 16 hours from Day 7 (water supply was continued), and subsequently on Day 8 100 μL of a solution of 1% (wt/vol) Oxa in 50% ethanol was transanally administered into the rectum (3.5 cm from the anus) using a catheter under anesthesia. Hereinafter, the above treatment is described as Oxa treatment. After treatment, typical feeding breeding was carried out.
Starting on the day following intrarectal administration of Oxa, test substances were orally administered (once daily, for 6 days). 5-Aminosalicylic acid (hereinafter 5-ASA, Tokyo Chemical Industry, Co., Ltd.) and prednisolone (hereinafter, PSL, Sigma), which are anti-inflammatory agents used for treating ulcerative colitis, were used as positive controls for the test. After group division, each of the test substances of Table 6 was suspended in a solution of 0.5% sodium carboxymethyl cellulose (hereinafter, CMC, Nacalai Tesque Inc.) in such a way as to be each treatment of Table 6 and orally administered once daily. […] These control groups, Groups 1 and 2, were orally administered, as the test substance, with the 0.5% CMC solution which was used as the medium.
The test started with 6 mice in Group No. 1 and 9 mice each in Group Nos. 2 to 6. After the treatment started, death of animals in Group Nos. 2 to 6 due to the cause considered enteritis from Oxa treatment was observed and thus 6 mice in Group Nos. 1 and 3, and 5 mice in Group Nos. 2 and 6, and 7 mice in Group Nos. 4 and 5 were finally used for analysis.
It is generally acknowledged as a known fact that Oxa treatment causes colon tissue changes such as the length of colon is shortened while the weight increases. For evaluating the therapeutic effect of Compound X, the length and weight of the colon were measured. The mice were euthanized under anesthesia on day 7 of Oxa treatment and dissected to remove the colon. The removed colon was quickly measured for a length in a relaxed state. Subsequently, feces in the intestinal tract were removed and sufficiently washed with phosphate buffered saline (Wako Pure Chemical Industries, Ltd.) and measured for a wet weight.

[1] = Group Nos. 3 to 6 of Table 7, in words
[2] = Oxa treatment + high dose 10 mg/kg/day oral, day 7, 10 mg/kg/day

CC1=C(/C=C/C(C)=C/C=C/C(C)=C/C=C/C=C(C)/C=C/C=C(C)/C=C/C2=C(C)C(=O)[C@@H](OC(=O)CNC(=O)NCCCC(=O)O)CC2(C)C)C(C)(C)C[C@H](OC(=O)CNC(=O)NCCCC(=O)O)C1=O.NCCCC[C@H](N)C(=O)O.NCCCC[C@H](N)C(=O)O [Compound X, 4-(3-{4-[18-(4(S)-[3-(3-Carboxypropyl)ureidoacetoxy]-2,6,6-trimethyl-3-oxocyclohexa-1-enyl)-3,7,12,16-tetramethyloctadeca-1(E),3(E),5(E),7(E),9(E),11(E),13(E),15(E),17(E)-nonaenyl]-3,5,5-trimethyl-2-oxocyclohex-3-enyl-1(S)-oxycarbonylmethyl}ureido)butyric acid dilysine salt]
Colon length compared with Vehicle group [1]: longer length of the colon than Vehicle group | Colon wet weight compared with Vehicle group [1]: suppressed weight increases compared with Vehicle group | Colon length [2]: 8.74 cm and 8.74 ± 0.48 cm | Colon weight (wet weight per length) [2]: 2.80 mg/mm and 2.80 ± 0.43 mg/mm | Colon length (Oxa treatment + low dose 3 mg/kg/day oral, Balb/c mice, day 7 of Oxa treatment, 3 mg/kg/day): 8.72 cm and 8.72 ± 0.50 cm | Colon weight (wet weight per length) (Oxa treatment + low dose 3 mg/kg/day oral, day 7, 3 mg/kg/day): 3.44 mg/mm and 3.44 ± 0.45 mg/mm
